Structures are written as SMILES. Calls of active or inactive are those of the source. No cut-off for these calls is given here.

21 compounds from ChEMBL document CHEMBL1134993, “Synthesis of [difluoro-(3-alkenylphenyl)-methyl]-phosphonic acids on non-crosslinked polystyrene and their evaluation as inhibitors of PTP1B” (Bioorg Med Chem Lett, 2002) can be followed below.

The target in test [1] is T1, Tyrosine-protein phosphatase non-receptor type 1 (Homo sapiens, UniProt P18031).
T1 sequence (P18031 whole entry): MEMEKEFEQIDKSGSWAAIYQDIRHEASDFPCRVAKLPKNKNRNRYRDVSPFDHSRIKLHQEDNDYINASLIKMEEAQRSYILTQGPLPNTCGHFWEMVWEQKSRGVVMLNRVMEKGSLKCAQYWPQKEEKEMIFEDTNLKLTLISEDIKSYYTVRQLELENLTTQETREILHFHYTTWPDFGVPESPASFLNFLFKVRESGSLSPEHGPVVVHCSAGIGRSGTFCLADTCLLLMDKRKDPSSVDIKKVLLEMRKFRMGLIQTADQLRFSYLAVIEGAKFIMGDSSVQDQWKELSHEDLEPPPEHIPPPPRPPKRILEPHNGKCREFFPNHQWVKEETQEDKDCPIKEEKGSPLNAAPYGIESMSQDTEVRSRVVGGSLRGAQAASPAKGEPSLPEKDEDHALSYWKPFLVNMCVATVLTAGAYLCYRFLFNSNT
The test is described as follows: Inhibitory concentration against protein-tyrosine phosphatase 1B (PTB 1B).

For test [2], the target named is T2, Tyrosine-protein phosphatase non-receptor type 1 (Homo sapiens) (UniProt P18031).
T2 sequence (whole entry): T1 sequence (P18031 whole entry)
As to the kind of experiment: Compound was evaluated for its percent Inhibition of protein-tyrosine phosphatase 1B (PTP1B) at the concentration of 50 uM; Showed little or no inhibition.

Test [3] deals with T2, Tyrosine-protein phosphatase non-receptor type 1 (Homo sapiens). The test is described as follows: Compound was evaluated for its percent Inhibition of protein-tyrosine phosphatase 1B (PTP1B) at the concentration of 50 uM; […].
Test [4] shares this target. As to the kind of experiment: Compound was evaluated for its percent Inhibition of protein-tyrosine phosphatase 1B (PTP1B) at the concentration of 50 uM.
For test [5], the target named is T1, Tyrosine-protein phosphatase non-receptor type 1. As to the kind of experiment: Inhibitory concentration against Protein-tyrosine phosphatase 1B (PTP1B).
For test [6] the target is unchanged. As to the kind of experiment: Binding affinity towards protein-tyrosine phosphatase 1B (PTP1B).

Broadly, the IC50 is the concentration at which inhibition is half-maximal. A higher IC50 goes with weaker potency in that assay. Consider `O=P(O)(O)C(F)(F)c1cccc(-c2ccccc2)c1`, for which half-maximal inhibition in test [1] (IC50) required 0.015 mM.

By inhibition is commonly meant the drop in the measured response relative to a control, in per cent. Take `O=P(O)(O)C(F)(F)c1cccc(/C=C\c2ccc(F)cc2)c1`: in test [2], the inhibition entry is “inactive”.

Consider `O=P(O)(O)C(F)(F)c1cccc(/C=C\CCc2ccccc2)c1`, for which the inhibition result in test [3] is “inactive”.

Regarding `CN(C)C/C=C\c1cccc(C(F)(F)P(=O)(O)O)c1`, in test [3], the inhibition result was “inactive”.

In the case of `N#C/C=C\c1cccc(C(F)(F)P(=O)(O)O)c1`, the inhibition in test [4] was 45%.

Turning to `O=P(O)(O)C(F)(F)c1cccc(/C=C\c2ccc(Cl)cc2)c1`, in test [2], the inhibition result was “inactive”.

With `COC(=O)/C=C\c1cccc(C(F)(F)P(=O)(O)O)c1`, the inhibition in test [4] turned out to be 23%.

Regarding `O=P(O)(O)C(F)(F)c1cccc(/C=C\Cl)c1`, the inhibition result in test [3] was “inactive”.

In the case of `O=[N+]([O-])c1ccc(/C=C\c2cccc(C(F)(F)P(=O)(O)O)c2)cc1`, the inhibition entry in test [2] was “inactive”.

As to `CCOc1ccc(/C=C\c2cccc(C(F)(F)P(=O)(O)O)c2)cc1`, the inhibition result in test [2] was “inactive”.

The compound `O=C(/C=C\c1cccc(C(F)(F)P(=O)(O)O)c1)OCc1ccccc1` gave an inhibition in test [4] of 71%.

A word on the Ki: it is the equilibrium dissociation constant of an inhibitor or competing ligand from its target. A lower Ki goes with a stronger hold on the target. In test [5], `C=CCOC(=O)/C=C\c1cccc(C(F)(F)P(=O)(O)O)c1` displayed an IC50 of 12.2 mM. Besides, the inhibition in test [4] stood at 84%. Moreover, the Ki in test [6] worked out at 8 mM.

Take `CCOC(=O)/C=C\c1cccc(C(F)(F)P(=O)(O)O)c1`: the inhibition in test [4] is 53%.

As for `CC/C=C\c1cccc(C(F)(F)P(=O)(O)O)c1`, the inhibition entry in test [3] is “inactive”.

With `Cc1ccccc1/C=C\c1cccc(C(F)(F)P(=O)(O)O)c1`, in test [2], the inhibition result is “inactive”.

`O=P(O)(O)C(F)(F)c1cccc(/C=C\c2ccccc2)c1`: the inhibition entry in test [2] was “inactive”.

For the compound `Cc1ccc(/C=C\c2cccc(C(F)(F)P(=O)(O)O)c2)cc1`, in test [2], the inhibition result is “inactive”.

Regarding `O=P(O)(O)C(F)(F)c1cccc(/C=C\C=C\c2ccccc2)c1`, in test [4], the inhibition came out at 70%.

With `O=P(O)(O)C(F)(F)c1cccc(/C=C\c2ccc(Br)cc2)c1`, in test [2], the inhibition result is “inactive”.

On to `O=P(O)(O)C(F)(F)c1cccc(/C=C\c2cccc3ccccc23)c1`, for which, in test [4], the inhibition is 60%.

Turning to `CC(C)=C/C=C\c1cccc(C(F)(F)P(=O)(O)O)c1`, the inhibition entry in test [3] is “inactive”.
